This note sets out measurements from US4705805A, “Antithrombotic agent” (priority 1978, dated 1987).

Broadly, the inhibition is how much of the control response was suppressed. The LD50 is the dose at which mortality reaches 50%. Lower therefore signals greater toxicity.

In series [1] the test system is rabbit blood platelets (platelet rich plasma), collagen-induced aggregation. Kind of series: inhibition of platelet aggregation in rabbit platelet rich plasma (in vitro), induced by collagen. It is filed as cell-based. The settings on record: rabbit PRP; for inhibition at 30 µg/mL / inhibition at 100 µg/mL / inhibition at 10 µg/mL / inhibition at 1 µg/mL / inhibition at 3 µg/mL: Oryctolagus cuniculus, Platelet, read-out: percentage of inhibition, collagen; for inhibition at 30 µg/mL: 30 μg/ml; for inhibition at 10 µg/mL: 10 μg/ml; for inhibition at 1 µg/mL: 1 μg/ml; for inhibition at 3 µg/mL: 3 μg/ml. Here is the method:
(§1) In this example, the inhibition of platelet aggregation in rabbit platelet rich plasma (in vitro) is tested.
(§2) In this test, 9 vol. of blood is sampled from the carotid artery of rabbits (2 to 2.5 Kg) and placed in a silicon-coated flask containing 1 vol. of 3.8% sodium citrate. The thus obtained blood is centrifuged at 1,000 rpm for 15 minutes to obtain platelet rich plasma (referred to as "PRP" hereinafter). The aggregation of blood platelets is observed using an aggregometer (made by Bryston Co.) and the degree of aggregation after the addition of aggregation promoting substances is measured by nephelometry, i.e., through increase in light transmission.
(§3) The PRP (0.9 ml) is placed in a silicon-coated cuvett of the aggregometer. Then, 0.05 ml of physiological saline solution containing various concentrations of test reagents or control reagents is added and the mixture is allowed to stand for one minute. Compounds promoting aggregation are then added and the absorbancy of the solution is measured and the percent inhibition of aggregation is calculated according to the following equation: [formula] C: Transmittancy showing the maximum percent aggregation by physiological saline solution
(§4) D: Transmittancy showing the maximum percent aggregation by sample
(§5) Test for the inhibition of platelet aggregation induced by ADP, collagen and thrombin.

Series [2] concerns rabbit blood platelets (platelet rich plasma), ADP-induced aggregation. The series is described as follows: inhibition of platelet aggregation in rabbit platelet rich plasma (in vitro), induced by ADP. It is filed as cell-based. The settings on record: rabbit PRP, ADP 10^-5 M; for inhibition at 30 µg/mL / inhibition at 100 µg/mL / inhibition at 10 µg/mL / inhibition at 3 µg/mL: Oryctolagus cuniculus, Platelet, read-out: percentage of inhibition, ADP; for inhibition at 30 µg/mL: 30 μg/ml; for inhibition at 10 µg/mL: 10 μg/ml; for inhibition at 3 µg/mL: 3 μg/ml. On the procedure:
as §1, §2, §3, §4, §5

Series [3] is described as follows: acute toxicity, Behrens-Karber's method. The settings on record: in vivo; mouse, oral. It counts as in vivo. On the procedure:
In this example, the acute toxicity of compounds of the invention is determined by Behrens-Karber's method using, 5 male dd-strain for each group weighing 20±1 g. A 0.3% CMC suspension of the test compound (concentration of the test compound: 100 mg/ml) is then orally administered to each mouse.

The test system of series [4] is human platelet rich plasma, collagen-induced aggregation. Kind of series: inhibition of platelet aggregation in human platelet rich plasma, induced by collagen. It counts as cell-based. The settings on record: human PRP, read-out: percentage inhibition, collagen. Here is the method: as §2, §3, §4
(§6) In this example, the same procedures are repeated as in Example 10 except that human platelet rich plasma is used in place of rabbit platelet rich plasma.

Series [5] concerns human platelet rich plasma, ADP-induced aggregation. The series is described as follows: inhibition of platelet aggregation in human platelet rich plasma, induced by ADP. It is filed as cell-based. The settings on record: human PRP, read-out: percentage inhibition, ADP. Here is the method:
as §2, §3, §4, §6

Some results are limits rather than exact numbers.

For the compound “2,2'-dithiobis(N-naphthylbenzamide) [Compound XXXIX]”, the “percentage of inhibition, collagen” value in series [1] (100 μg/ml) was found to be 12%. Besides, the “percentage of inhibition, ADP” value in series [2] (100 μg/ml) stood at 25%.
As to `CCCCNC(=O)c1ccccc1SSc1ccccc1C(=O)NCCCC` [Compound I, 2,2'-dithiobis(N-n-butylbenzamide)], the inhibition at 30 µg/mL in series [1] worked out at 16.5%; in series [2], 13.4%. The inhibition at 100 µg/mL was determined as 100% in series [1] (100 μg/ml) and 46.6% in series [2] (100 μg/ml). The same compound gave an LD50 in series [3] of at least 300 mg/kg.
Take `CCCCCCCCCCCCNC(=O)c1ccccc1SSc1ccccc1C(=O)NCCCCCCCCCCCC` [Compound VI, 2,2'-dithiobis(N-dodecylbenzamide)]: the inhibition at 30 µg/mL in series [1] and in series [2] was 0% each time. Besides, the inhibition at 100 µg/mL stood at 89% in series [1] (100 μg/ml) and 35% in series [2] (100 μg/ml).
Take `CCCCCCCCCCCCCCCCCCNC(=O)c1ccccc1SSc1ccccc1C(=O)NCCCCCCCCCCCCCCCCCC` [Compound VII, 2,2'-dithiobis(N-octadecylbenzamide)]: the inhibition at 30 µg/mL in series [1] and in series [2] was 0% each time. Moreover, the inhibition at 100 µg/mL in series [1] (100 μg/ml) turned out to be 38%; in series [2] (100 μg/ml), 10%.
On to `O=C(Nc1cccc(Cl)c1)c1ccccc1SSc1ccccc1C(=O)Nc1cccc(Cl)c1` [Compound XI, 2,2'-dithiobis(N-m-chlorophenylbenzamide)], for which the inhibition at 10 µg/mL in series [1] and in series [2] was 0% in each case. Further, the inhibition at 30 µg/mL in series [1] was 99%; in series [2], 29%. Moreover, the inhibition at 100 µg/mL in series [1] (100 μg/ml) came to 100%; in series [2] (100 μg/ml), 96%.
For the compound `O=C(c1ccccc1SSc1ccccc1C(=O)N(c1ccccc1)c1ccccc1)N(c1ccccc1)c1ccccc1` [Compound XIII, 2,2'-dithiobis(N-diphenylbenzamide)], the inhibition at 30 µg/mL was 12.2% in series [1] and 16% in series [2]. Further, the values for the inhibition at 100 µg/mL in series [1] (100 μg/ml) and in series [2] (100 μg/ml) were 47% and 60%, respectively.
For the compound `CC(CCc1ccccc1)NC(=O)c1ccccc1SSc1ccccc1C(=O)NC(C)CCc1ccccc1` (stereo not drawn) [Compound XIV, 2,2'-dithiobis[N-(1-methyl-3-phenylpropyl)]benzamide], the inhibition at 30 µg/mL in series [1] stood at 24%; in series [2], 28%.
`O=C(NCCCO)c1ccccc1SSc1ccccc1C(=O)NCCCO` [Compound XVI, 2,2'-dithiobis(N-3-hydroxypropylbenzamide)]: in series [1], the inhibition at 1 µg/mL amounted to 8%, the inhibition at 3 µg/mL was 50% and the inhibition at 10 µg/mL amounted to 78%. Also, the inhibition at 100 µg/mL in series [1] (100 μg/ml) was 100%. Also, in series [2], the inhibition at 3 µg/mL was determined as 42% and the inhibition at 10 µg/mL stood at 64%. In series [2] (100 μg/ml), the inhibition at 100 µg/mL is 88%.
Regarding `O=C(NCCCCO)c1ccccc1SSc1ccccc1C(=O)NCCCCO` [Compound XVII, 2,2'-dithiobis(N-4-hydroxybutylbenzamide)], in series [1], the inhibition at 3 µg/mL came to 0%, the inhibition at 10 µg/mL is 97% and the inhibition at 30 µg/mL was 100%. Further, the inhibition at 100 µg/mL in series [1] (100 μg/ml) came out at 100%. Further, the inhibition at 30 µg/mL in series [2] is 45%. In series [2] (100 μg/ml), the inhibition at 100 µg/mL worked out at 100%.
With `CCCCCCCCCCCCCCCC(=O)OCCNC(=O)c1ccccc1SSc1ccccc1C(=O)NCCOC(=O)CCCCCCCCCCCCCCC` [Compound XX, 2,2'-dithiobis(N-2-hexadecanoyloxyethylbenzamide)], the inhibition at 30 µg/mL in series [1] and in series [2] was 0% throughout. Moreover, the inhibition at 100 µg/mL worked out at 33% in series [1] (100 μg/ml) and 23% in series [2] (100 μg/ml).
On to `CCCCCCCCCCCC(=O)OCCCNC(=O)c1ccccc1SSc1ccccc1C(=O)NCCCOC(=O)CCCCCCCCCCC` [Compound XXI, 2,2'-dithiobis(N-dodecanoyloxypropylbenzamide)], for which the values for the inhibition at 30 µg/mL in series [1] and in series [2] were 0% and 5%, respectively. In addition, the inhibition at 100 µg/mL in series [1] (100 μg/ml) came to 33%; in series [2] (100 μg/ml), 32%.
As for `CCCCCCCCCCCCCCCC(=O)OCCCNC(=O)c1ccccc1SSc1ccccc1C(=O)NCCCOC(=O)CCCCCCCCCCCCCCC` [Compound XXII, 2,2'-dithiobis(N-hexadecanoyloxypropylbenzamide)], the inhibition at 30 µg/mL in series [1] and in series [2] was 0% throughout. Moreover, the inhibition at 100 µg/mL was 18% in series [1] (100 μg/ml) and 40% in series [2] (100 μg/ml).
As to `CCCCCCCCCCCC(=O)OC(C)CNC(=O)c1ccccc1SSc1ccccc1C(=O)NCC(C)OC(=O)CCCCCCCCCCC` (stereo not drawn) [Compound XXIII, 2,2'-dithiobis(N-2-dodecanoyloxypropylbenzamide)], the inhibition at 30 µg/mL in series [1] was determined as 52%; in series [2] it was 19%. Moreover, the inhibition at 100 µg/mL turned out to be 100% in series [1] (100 μg/ml) and 93% in series [2] (100 μg/ml).
In the same order, the values of `CCCCCCCCCCCCCCCC(=O)OC(C)CNC(=O)c1ccccc1SSc1ccccc1C(=O)NCC(C)OC(=O)CCCCCCCCCCCCCCC` (stereo not drawn) [Compound XXIV, 2,2'-dithiobis(N-2-hexadecanoyloxypropylbenzamide)] are 19%, 0%, 86% and 59%.
`CN1CCN(C(=O)c2ccccc2SSc2ccccc2C(=O)N2CCN(C)CC2)CC1` [Compound XXXII, 2,2'-dithiobis(N'-methylbenzpiperazide)]: the inhibition at 1 µg/mL in series [1] came to 2%. Also, the inhibition at 3 µg/mL was determined as 59% in series [1] and 26% in series [2]. The inhibition at 10 µg/mL in series [1] came to 90%; in series [2] it was 62%. The inhibition at 30 µg/mL in series [1] came out at 100%; in series [2], 100%; in series [4] (30 μg/ml) it was 34%; in series [5] (30 μg/ml) it was 15%. For the same compound, the inhibition at 100 µg/mL in series [4] (100 μg/ml) is 100%; in series [5] (100 μg/ml), 60%.
Turning to `O=C(c1ccccc1SSc1ccccc1C(=O)N1CCN(C(c2ccccc2)c2ccccc2)CC1)N1CCN(C(c2ccccc2)c2ccccc2)CC1` [Compound XXXIII, 2,2'-dithiobis(N'-diphenylmethylbenzpiperazide)], the inhibition at 30 µg/mL is 22% in series [1] and 16% in series [2].
Take `COC(CNC(=O)c1ccccc1SSc1ccccc1C(=O)NCC(OC)OC)OC` [Compound XXXIV, 2,2'-dithiobis(N-2,2-di-methoxyethylbenzamide)]: in series [1], the inhibition at 3 µg/mL stood at 21%, the inhibition at 10 µg/mL is 87% and the inhibition at 30 µg/mL was found to be 100%. In addition, in series [2], the inhibition at 3 µg/mL was 21%, the inhibition at 10 µg/mL is 35% and the inhibition at 30 µg/mL stood at 83%.
Regarding `CCOCCCNC(=O)c1ccccc1SSc1ccccc1C(=O)NCCCOCC` [Compound XXXV, 2,2'-dithiobis(N-3-ethyloxypropylbenzamide)], the inhibition at 10 µg/mL in series [1] worked out at 15%. Also, the inhibition at 30 µg/mL in series [1] came out at 31%. Also, the inhibition at 100 µg/mL in series [1] (100 μg/ml) was determined as 100%; in series [2] (100 μg/ml) it was 35%.
Turning to `O=C(NC1CCC(O)CC1)c1ccccc1SSc1ccccc1C(=O)NC1CCC(O)CC1` (stereo not drawn) [Compound XXXVI, 2,2'-dithiobis[N-(4-hydroxycyclohexyl)benzamide]], the inhibition at 30 µg/mL in series [1] came out at 8%. For the same compound, the inhibition at 100 µg/mL in series [1] (100 μg/ml) amounted to 95%; in series [2] (100 μg/ml), 35%.
Consider `O=C(NCN1CCCCC1)c1ccccc1SSc1ccccc1C(=O)NCN1CCCCC1` [Compound XXXVII, 2,2'-dithiobis(N-piperidinylmethylbenzamide)], for which the inhibition at 100 µg/mL in series [2] (100 μg/ml) was 20%.
With `O=C(NCC(O)c1ccccc1)c1ccccc1SSc1ccccc1C(=O)NCC(O)c1ccccc1` (stereo not drawn) [Compound XXXVIII, 2,2'-dithiobis(N-2-hydroxy-2-phenylethylbenzamide)], the inhibition at 100 µg/mL in series [1] (100 μg/ml) came out at 19%; in series [2] (100 μg/ml), 12%.
For the compound `Nc1ncnc2c1ncn2[C@@H]1O[C@H](CO)[C@@H](O)[C@H]1O` [adenosine, reference compound], the inhibition at 100 µg/mL in series [2] (100 μg/ml) came out at 39%.
